Laboratory results taken from the NIST ThermoML archive (doi:10.1016/j.jct.2012.11.015).
Numbers after ± are expanded uncertainties.

What was measured:
[1] = Liquid; for speed of sound: Sing-around technique in a fixed-path interferometer; for mass density: Vibrating tube method
[2] = refractive index (Na D-line) (dimensionless); settings: 298.15 K; 101.33 kPa; Liquid; Standard Abbe refractometry
[3] = xn = mol fraction of the nth substance listed; settings: 101 kPa, Liquid, Vibrating tube method

CCCCCCCCO [octan-1-ol]
[1]
Settings | mass density, 298.15 K [kg/m3] | mass density, 303.15 K [kg/m3] | mass density, 308.15 K [kg/m3] | mass density, 313.15 K [kg/m3] | speed of sound, 298.15 K [m/s]
101 kPa | – | 818.209 ± 0.21 | 814.742 ± 0.21 | 810.629 ± 0.21 | –
101.33 kPa | 821.222 ± 0.21 | – | – | – | 1347.8 ± 1.5

Settings | refractive index
[2] | 1.4273 ± 0.0009

CN(C)C=O [dimethylformamide]
[1]
Settings | mass density, 298.15 K [kg/m3] | mass density, 303.15 K [kg/m3] | mass density, 308.15 K [kg/m3] | mass density, 313.15 K [kg/m3] | speed of sound, 298.15 K [m/s]
101 kPa | – | 939.047 ± 0.059 | 934.721 ± 0.06 | 929.478 ± 0.062 | –
101.33 kPa | 944.29 ± 0.057 | – | – | – | 1457.7 ± 1.2

Settings | refractive index
[2] | 1.428 ± 0.0009

CN(C)C=O [dimethylformamide] + CCCCCCCCCCO
[3], x1 = 1
Settings | mass density [kg/m3]
298.15 K | 944.29 ± 0.057
303.15 K | 939.047 ± 0.059
308.15 K | 934.721 ± 0.06
313.15 K | 929.478 ± 0.062

CCCCCCCCCO [nonan-1-ol] + CN(C)C=O
mass density [kg/m3], [3]
Settings | x2 = 0 | x2 = 0.2201 | x2 = 0.3969 | x2 = 0.5458 | x2 = 0.6515 | x2 = 0.7321 | x2 = 0.8042 | x2 = 0.8644 | x2 = 0.9168 | x2 = 0.9596
298.15 K | 824.478 ± 0.62 | 836.826 ± 0.43 | 849.646 ± 0.31 | 863.512 ± 0.22 | 875.893 ± 0.17 | 887.234 ± 0.14 | 899.18 ± 0.11 | 910.842 ± 0.092 | 922.441 ± 0.078 | 933.098 ± 0.067
303.15 K | 821.044 ± 0.62 | 833.085 ± 0.43 | 845.647 ± 0.31 | 859.175 ± 0.22 | 871.335 ± 0.17 | 882.498 ± 0.14 | 894.281 ± 0.11 | 905.742 ± 0.094 | 917.225 ± 0.079 | 927.834 ± 0.069
308.15 K | 817.582 ± 0.61 | 829.399 ± 0.43 | 841.793 ± 0.31 | 855.283 ± 0.22 | 867.284 ± 0.17 | 878.301 ± 0.14 | 889.932 ± 0.11 | 901.314 ± 0.095 | 912.742 ± 0.081 | 923.379 ± 0.071
313.15 K | 814.098 ± 0.61 | 825.49 ± 0.43 | 837.685 ± 0.31 | 851.074 ± 0.22 | 862.916 ± 0.17 | 873.711 ± 0.14 | 885.08 ± 0.12 | 896.217 ± 0.097 | 907.487 ± 0.083 | 918.072 ± 0.073

CN(C)C=O [dimethylformamide] + CCCCCCCCO
[3], x1 = 1
Settings | mass density [kg/m3]
298.15 K | 944.29 ± 0.057
303.15 K | 939.047 ± 0.059
308.15 K | 934.721 ± 0.06
313.15 K | 929.478 ± 0.062

CN(C)C=O [dimethylformamide] + CCCCCCCCCO
[3], x1 = 1
Settings | mass density [kg/m3]
298.15 K | 944.29 ± 0.057
303.15 K | 939.047 ± 0.059
308.15 K | 934.721 ± 0.06
313.15 K | 929.478 ± 0.062

CCCCCCCCCCO [decan-1-ol]
[1]
Settings | mass density, 298.15 K [kg/m3] | mass density, 303.15 K [kg/m3] | mass density, 308.15 K [kg/m3] | mass density, 313.15 K [kg/m3] | speed of sound, 298.15 K [m/s]
101 kPa | – | 822.853 ± 0.2 | 819.427 ± 0.2 | 816.383 ± 0.2 | –
101.33 kPa | 826.562 ± 0.2 | – | – | – | 1380 ± 1.5

Settings | refractive index
[2] | 1.4348 ± 0.0009
